The results in this text go back to ChEMBL document CHEMBL1201862, “PubChem BioAssay data set” (2004).

Each structure is given as a SMILES string. Counter-ions that a name gives are not always drawn.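 1) Cells in 96-well plates. 2) Compound, 48 h, 5 concentrations. 3) Linear interpolation between surrounding doses. 4) Unreached endpoint = highest concentration. Here, GI50 denotes the concentration required for 50% inhibition of growth.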 Activity calls are given as the source filed them. No stated cut-off is given here; in the data, active = GI50 up to about 1.1 µM and inactive = higher.

What all share (experiment): NCI-60 cell line screen, 48 h
Experiment [1] relates to DLD-1.
The test system of experiment [2] is SNB-78.
Experiment [3] deals with DMS-114.
Experiment [4] concerns LXFL 529.
For experiment [5], the system named is M19-MEL.
For experiment [6], the system named is XF498.
In experiment [7] the test system is HOP-18.
Experiment [8] concerns RXF 631.
Experiment [9] deals with KM-20L2.

Take `NCC1(N2CCOCC2)C2CCCC21CNc1ccccc1` (stereo unspecified): the GI50 in [1] was > 100 µM (inactive); in experiment [2], > 100 µM (inactive); in experiment [3], > 100 µM (inactive); in experiment [4] it was > 100 µM (inactive); in experiment [5], > 100 µM (inactive); in [6], 69.8 µM (inactive). For the same compound, the GI50 in experiment [7] and in experiment [8] was > 100 µM (inactive) throughout.

For `COC1=C(OC)CCC(/C(C#N)=C/c2ccc(OC)c(OC)c2)=C1`, the GI50 in [1] was > 100 µM (inactive); in experiment [2] it was 53.2 µM (inactive); in experiment [3] it was 31.6 µM (inactive); in experiment [4], > 100 µM (inactive); in [5], > 100 µM (inactive); in experiment [9], > 100 µM (inactive). In addition, the GI50 in experiment [7] and in experiment [8] was > 100 µM (inactive) in each case.

`CCOC(=O)C(CNc1ccc(O)cc1)NC(=O)c1ccccc1` (stereo unspecified): the GI50 in [1] is > 100 µM (inactive); in experiment [2], > 100 µM (inactive); in experiment [3], > 79.8 µM (inactive); in experiment [4], 77.3 µM (inactive); in experiment [5], 47 µM (inactive); in [9], > 100 µM (inactive). Besides, the GI50 in experiment [6] and in [7] was > 100 µM (inactive) each time.

Take `CC1=NN(C(=O)CC(=O)Nc2ccccc2F)C(=O)C1/N=N/c1ccccc1[N+](=O)[O-]` (stereo unspecified): the GI50 in [1] is 83 µM (inactive); in experiment [2], 87.3 µM (inactive); in experiment [3], 57.9 µM (inactive); in [4], > 100 µM (inactive); in experiment [5], 18.7 µM (inactive); in experiment [9], > 100 µM (inactive). Further, the GI50 in experiment [6] was > 100 µM (inactive).

Take `C=C(C#N)C1OCC2OC(C)(C)OC21` (stereo unspecified): the GI50 in [1] is 17.1 µM (inactive); in experiment [2], 19.7 µM (inactive); in [3] it was 22.7 µM (inactive); in experiment [5] it was 22 µM (inactive); in experiment [7], 24.7 µM (inactive); in experiment [8], 20.9 µM (inactive).

`CC1(Cl)C(=O)NC(=O)N(C2CC(N=[N+]=[N-])C(CO)O2)C1N=[N+]=[N-]` (stereo unspecified): the GI50 in experiment [1], in experiment [3], in experiment [4], in [5], in experiment [9] and in experiment [6] was > 100 µM (inactive) each time. For the same compound, the GI50 in [8] is > 100 µM (inactive).

Consider `CCN1CCC(O)(c2ccccc2)C(C(=O)c2ccccc2)C1` (stereo unspecified), for which the GI50 in [1] is 19.4 µM (inactive); in [2], 26.7 µM (inactive); in [3], 29.9 µM (inactive); in [4] it was 15.6 µM (inactive); in [5], 26.7 µM (inactive); in experiment [9] it was 32 µM (inactive). Further, the values for the GI50 in experiment [6] and in [7] were 16.3 µM (inactive) and 14.7 µM (inactive), respectively.

In the case of `CC(=O)OC1COC(n2ccc3cc(Br)c([N+](=O)[O-])cc32)C(OC(C)=O)C1OC(C)=O` (stereo unspecified), the GI50 in experiment [1] was 44.3 µM (inactive); in experiment [2], 20.8 µM (inactive); in experiment [3], 27.7 µM (inactive); in experiment [4] it was 20 µM (inactive); in experiment [5], 29.4 µM (inactive); in [9] it was 31 µM (inactive). For the same compound, the GI50 in experiment [6] was 14.3 µM (inactive); in experiment [7], > 10 µM (inactive); in experiment [8], 23.7 µM (inactive).

In the case of `CCN(CC)c1c(C)nnn1C1OC(COC(C)=O)C(OC(C)=O)C(OC(C)=O)C1OC(C)=O` (stereo unspecified), the GI50 in experiment [1], in experiment [2], in [3], in experiment [4], in experiment [5] and in [9] was > 100 µM (inactive) throughout. Further, the GI50 in [7] and in experiment [8] was > 100 µM (inactive) in each case.

As to `S=c1sc2sc(=S)sc2s1`, the GI50 in [1] is 37.1 µM (inactive); in experiment [2], 54.5 µM (inactive); in [4] it was 13.6 µM (inactive); in [5] it was 28.6 µM (inactive); in experiment [9] it was 70.3 µM (inactive); in experiment [7], > 100 µM (inactive). Also, in experiment [8], the GI50 is 18.7 µM (inactive).

With `NNC(=O)C1CCC(=O)N1S(=O)(=O)c1ccccc1` (stereo unspecified), the GI50 in experiment [1], in [2], in experiment [3], in experiment [4], in experiment [5] and in [9] was > 100 µM (inactive) throughout. Moreover, the GI50 in [6] is > 100 µM (inactive).

Consider `C=C1CN2CCc3c([nH]c4ccccc34)C2CC1CC(=O)N(C)C` (stereo unspecified), for which the GI50 in experiment [1], in experiment [3], in experiment [4], in experiment [5], in experiment [9] and in experiment [6] was > 309 µM (inactive) throughout. Also, the GI50 in experiment [7] was > 309 µM (inactive).

As to `C[C@H]1C[C@@H]2[C@H]([C@@H](O)C[C@@]3(C)[C@H]2CC[C@]3(O)C(=O)CO)[C@@]2(C)C=CC(=O)C=C12` [METHYLPREDNISOLONE], the GI50 in experiment [1], in [3], in experiment [5], in experiment [9] and in experiment [7] was > 100 µM (inactive) each time.

`O=C1OC(c2ccccc2)=N/C1=C/N1CCCC1C(=O)O` (stereo unspecified): the GI50 in [1], in experiment [2], in experiment [3], in experiment [4], in [5] and in [9] was > 100 µM (inactive) in each case. For the same compound, the GI50 in [6], in experiment [7] and in experiment [8] was > 100 µM (inactive) throughout.

In the case of `Cc1c2cc[n+](C)cc2c(C)c2c1oc1ccccc12`, the GI50 in experiment [1] was 8.57 µM (inactive); in [2] it was 4.02 µM (inactive); in experiment [3], 1.31 µM (inactive); in experiment [4], 1.54 µM (inactive); in experiment [5], 2.64 µM (inactive); in experiment [9], 9.98 µM (inactive). In experiment [7], the GI50 was 6.82 µM (inactive).

`CN(C)/C(=N/C(=O)Nc1ccccc1)SCc1ccccc1`: the GI50 in [1] was 65.3 µM (inactive); in experiment [2], > 100 µM (inactive); in [3] it was 67.5 µM (inactive); in [4] it was > 100 µM (inactive); in experiment [5] it was > 100 µM (inactive); in experiment [6], 6.43 µM (inactive). Moreover, the GI50 in [7] is 64.9 µM (inactive).

Take `CC(=O)/C(=C\c1ccco1)C(=O)Nc1ccccc1`: the GI50 in experiment [1], in experiment [2], in [3], in experiment [4], in [5] and in experiment [6] was > 100 µM (inactive) throughout. For the same compound, the GI50 in [7] is > 100 µM (inactive).

For the compound `CNC(C)Cc1ccccc1OC` (stereo unspecified) [METHOXYPHENAMINE HYDROCHLORIDE], the GI50 in experiment [1], in experiment [2], in experiment [3], in experiment [4], in [9] and in [6] was > 100 µM (inactive) in each case. The GI50 in [7] and in [8] was > 100 µM (inactive) each time.

Consider `O=C(O)CC12C3C4C5C3C1C5C42` (stereo unspecified), for which the GI50 in experiment [1], in experiment [2], in experiment [3], in experiment [4], in experiment [5] and in [9] was > 100 µM (inactive) throughout. Also, in experiment [6], the GI50 was > 100 µM (inactive).

For `O=C1C=C2S[C@H]3C[C@]2(C=C1Br)C1=C(N3)C(=O)c2[nH]cc3c2C1=NCC3` [(+)-DISCORHABDIN B], the GI50 in experiment [1] is 0.617 µM (active); in experiment [2] it was 1.78 µM (inactive); in [4], 0.19 µM (active); in experiment [9] it was 0.463 µM (active); in experiment [6], 1.42 µM (inactive); in [7], 1.78 µM (inactive).

As to `CN(C)CC1CCC(CN(C)C)C1=O` (stereo unspecified), the GI50 in [1] was 2.05 µM (inactive); in experiment [2] it was 5.83 µM (inactive); in experiment [3], 5.92 µM (inactive); in experiment [4], 1.47 µM (inactive); in [5], 3.43 µM (inactive); in experiment [9] it was 17.4 µM (inactive). Moreover, the results for the GI50 in [6] and in [7] were 5.69 µM (inactive) and 18.8 µM (inactive), respectively.

As to `CCCCCCCCCCCCCC1CCC(CC)N1` (stereo unspecified), the GI50 was 14.9 µM (inactive) in [1]; 13 µM (inactive) in [2]; 7 µM (inactive) in [3]; 18.2 µM (inactive) in experiment [4]; 3.18 µM (inactive) in experiment [5]; 13.3 µM (inactive) in experiment [9]. Besides, in [7], the GI50 is 17.1 µM (inactive).

In the case of `CSC1=Nc2ccccc2N=C(c2ccc(Cl)cc2)C1`, the GI50 was 25.9 µM (inactive) in [1]; 52.5 µM (inactive) in experiment [2]; 45 µM (inactive) in [4]; 36.3 µM (inactive) in experiment [5]; 35.5 µM (inactive) in [9]; 36.5 µM (inactive) in experiment [6]. Besides, the GI50 in experiment [7] is 0.0877 µM (active).

Turning to `CO[C@@H]1C=C[C@@]23c4cc5c(cc4CN(C[C@@H]2O)[C@H]3C1)OCO5` [(+)-HAEMANTHAMINE], the GI50 was 15.3 µM (inactive) in experiment [1]; 52.5 µM (inactive) in experiment [2]; 79.6 µM (inactive) in experiment [3]; 13.6 µM (inactive) in experiment [4]; 16.6 µM (inactive) in experiment [5]; 11.7 µM (inactive) in experiment [9]. Further, the GI50 was 16.7 µM (inactive) in experiment [6] and 21.8 µM (inactive) in experiment [7].

As to `Cn1cc(C(=O)c2ccccc2)c2ccccc2c1=O`, the GI50 was > 100 µM (inactive) in experiment [1]; > 100 µM (inactive) in experiment [3]; 89.3 µM (inactive) in experiment [4]; > 100 µM (inactive) in [5]; > 100 µM (inactive) in [6].
